We go through two compounds from patent US12077503B2, “Substituted cyclic amides and their use as herbicides” (FMC CORPORATION, priority 2015, dated 2024).

What all share (assay type): in vivo
Assay [1] relates to giant foxtail (Setaria faberii). Briefly: Test A postemergence. To be noted: Setaria faberi, post-emergence, 240 h; for pest or weed control at 125 g/ha: 125 g ai/ha. The gist of the method:
(§1)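 Compounds were formulated in a non-phytotoxic solvent mixture with surfactant and applied as a preemergence directed soil spray after seeding, or sprayed postemergence over plants 2 to 10 cm tall at the one- to two-leaf stage. Evaluation after about 10 d compared treated with untreated controls, using a scale from 0 (no effect) to 100 (complete control).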

Assay [2] deals with barnyardgrass (Echinochloa crus-galli). Briefly: Test A postemergence. To be noted: Echinochloa crus-galli, post-emergence, 240 h; for pest or weed control at 125 g/ha: 125 g ai/ha. The gist of the method:
as §1

In assay [3] the test system is ryegrass, Italian (Italian ryegrass, Lolium multiflorum). Put plainly: Test A postemergence. Conditions: Lolium multiflorum, post-emergence, 240 h; for pest or weed control at 125 g/ha: 125 g ai/ha. The procedure, abridged:
as §1

The test system of assay [4] is pigweed (Amaranthus retroflexus). Put plainly: Test A postemergence. Conditions: Amaranthus retroflexus, post-emergence, 240 h; for pest or weed control at 125 g/ha: 125 g ai/ha. The gist of the method:
as §1

Assay [5] relates to rice (Oryra sativa). Briefly: Test B flooded paddy test. Conditions: Oryza sativa, Flood, 250 g ai/ha. The gist of the method:
(§2)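 Flooding to 3 cm over soil accompanied treatment, which consisted of adding compound to the standing water around 2-leaf plants; depth was then maintained. Visual assessment versus controls followed at 13 to 15 d (scale 0–100, 0 meaning no effect).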

Assay [6] has as its system barnyardgrass (Echinochloa crus-galli). Briefly: Test B flooded paddy test. Conditions: Echinochloa crus-galli, Flood, 250 g ai/ha. The procedure, abridged:
as §2

Assay [7] deals with ducksalad (Heteranthera limosa). Put plainly: Test B flooded paddy test. To be noted: Heteranthera limosa, Flood, 250 g ai/ha. The gist of the method: as §2
For assay [8], the system named is sedge, umbrella (small-flower umbrella sedge, Cyperus difformis). Put plainly: Test B flooded paddy test. To be noted: Cyperus difformis, Flood, 250 g ai/ha. The gist of the method: as §2
In assay [9] the test system is giant foxtail (Setaria faberii). Put plainly: Test A preemergence. To be noted: Setaria faberi, pre-emergence, 240 h, read-out: Plant response rating, Foxtail, Giant; for pest or weed control at 125 g/ha: 125 g ai/ha; for pest or weed control at 500 g/ha: 500 g ai/ha. The gist of the method: as §1
Assay [10] relates to Kochia (Kochia scoparia). Put plainly: Test A preemergence. To be noted: Bassia scoparia, pre-emergence, 240 h, read-out: Plant response rating, Kochia; for pest or weed control at 125 g/ha: 125 g ai/ha; for pest or weed control at 500 g/ha: 500 g ai/ha. The procedure, abridged:
as §1

Assay [11] has as its system barnyardgrass (Echinochloa crus-galli). Put plainly: Test A preemergence. To be noted: Echinochloa crus-galli, pre-emergence, 240 h, read-out: Plant response rating, Barnyardgrass; for pest or weed control at 125 g/ha: 125 g ai/ha; for pest or weed control at 500 g/ha: 500 g ai/ha. The gist of the method:
as §1

The subject of assay [12] is ryegrass, Italian (Italian ryegrass, Lolium multiflorum). Put plainly: Test A preemergence. Conditions: Lolium multiflorum, pre-emergence, 240 h, read-out: Plant response rating, Ryegrass, Italian; for pest or weed control at 125 g/ha: 125 g ai/ha; for pest or weed control at 500 g/ha: 500 g ai/ha. The gist of the method:
as §1

Assay [13] concerns pigweed (Amaranthus retroflexus). Briefly: Test A preemergence. Conditions: Amaranthus retroflexus, pre-emergence, 240 h, read-out: Plant response rating, Pigweed; for pest or weed control at 125 g/ha: 125 g ai/ha; for pest or weed control at 500 g/ha: 500 g ai/ha.
Assay [14] deals with ragweed (common ragweed, Ambrosia elatior). Put plainly: Test A preemergence. Conditions: Ambrosia artemisiifolia, pre-emergence, 240 h, read-out: Plant response rating, Ragweed; for pest or weed control at 125 g/ha: 125 g ai/ha; for pest or weed control at 500 g/ha: 500 g ai/ha. The procedure, abridged:
as §1

The mark [15] stands for this setting: preemergence, visual rating after approx. 10 d, 0 to 100 scale where 0 is no effect and 100 is complete control.
The mark [16] stands for this setting: preemergence, 0 to 100 scale, 0 = no effect, 100 = complete control.
Where [17] appears, read: preemergence, 0 to 100 scale (0 no effect, 100 complete control).
The mark [18] stands for this setting: Preemergence, 0 to 100 scale (0 no effect, 100 complete control).

Where two headings read alike, the source gives them in different places.

On to `CN1C[C@H](c2ccc3c(c2)CCC3)[C@@H](C(=O)Nc2ccccc2F)C1=O` [Compound 742], for which the pest or weed control at 125 g/ha in assay [1] (postemergence, visual injury after approximately 10 d, 0 to 100 scale (0 no effect, 100 complete control), read-out: Plant response rating, Foxtail, Giant) came out at 90%; in assay [2] (postemergence, visual injury after approximately 10 d, 0 to 100 scale (0 no effect, 100 complete control), read-out: Plant response rating, Barnyardgrass) it was 90%; in assay [3] (postemergence, visual injury after approximately 10 d, 0 to 100 scale (0 no effect, 100 complete control), read-out: Plant response rating, Ryegrass, Italian), 60%; in assay [4] (postemergence, visual injury after approximately 10 d, 0 to 100 scale (0 no effect, 100 complete control), read-out: Plant response rating, Pigweed) it was 0%; in assay [9] (setting [15]), 90%; in assay [10] (setting [15]) it was 60%. The pest or weed control at 125 g/ha in assay [11] (setting [15]) amounted to 90%; in assay [12] (setting [15]), 50%; in [13] (setting [15]), 20%; in [14] (setting [15]), 20%. Besides, the pest or weed control at 250 g/ha in assay [5] (scale of 0 to 100 where 0 is no effect and 100 is complete control, read-out: Rice plant response rating) was 0%; in assay [6] (scale of 0 to 100 where 0 is no effect and 100 is complete control, read-out: Barnyardgrass plant response rating), 60%; in assay [7] (scale of 0 to 100 where 0 is no effect and 100 is complete control, read-out: Ducksalad plant response rating), 100%; in [8] (scale of 0 to 100 where 0 is no effect and 100 is complete control, read-out: Sedge, Umbrella plant response rating), 0%. For the same compound, the pest or weed control at 500 g/ha was found to be 90% in assay [9] (setting [16]); 90% in [10] (setting [16]); 90% in [11] (setting [16]); 90% in [12] (setting [16]); 50% in [13] (setting [16]); 80% in assay [14] (setting [16]).
`CN1C[C@H](c2ccc(OC(F)F)cc2)[C@@H](C(=O)Nc2ccccc2F)C1=O` [Compound 1371]: the pest or weed control at 125 g/ha in assay [1] (Postemergence, visual rating about 10 d after treatment, read-out: Foxtail, Giant plant response rating (0 to 100 scale)) came to 90%; in [2] (Postemergence, visual rating about 10 d after treatment, read-out: Barnyardgrass plant response rating (0 to 100 scale, 0 no effect, 100 complete control)), 80%; in [3] (Postemergence, visual rating about 10 d after treatment, read-out: Ryegrass, Italian plant response rating (0 to 100 scale)), 30%; in assay [4] (Postemergence, visual rating about 10 d after treatment, read-out: Pigweed plant response rating (0 to 100 scale)), 30%; in assay [9] (setting [18]), 90%; in assay [10] (setting [18]) it was 80%. Besides, the pest or weed control at 125 g/ha came to 90% in assay [11] (setting [18]), 0% in assay [12] (setting [18]), 70% in assay [13] (setting [18]) and 70% in assay [14] (setting [18]). Also, the pest or weed control at 500 g/ha in assay [1] (Postemergence, 500 g ai/ha, visual injury, 0 to 100 scale (0 no effect, 100 complete control), approx. 10 d, read-out: Plant response rating, Foxtail, Giant) was determined as 90%; in assay [2] (Postemergence, 500 g ai/ha, visual injury, 0 to 100 scale (0 no effect, 100 complete control), approx. 10 d, read-out: Plant response rating, Barnyardgrass) it was 90%; in assay [3] (Postemergence, 500 g ai/ha, visual injury, 0 to 100 scale (0 no effect, 100 complete control), approx. 10 d, read-out: Plant response rating, Ryegrass, Italian) it was 50%; in assay [4] (Postemergence, 500 g ai/ha, visual injury, 0 to 100 scale (0 no effect, 100 complete control), approx. 10 d, read-out: Plant response rating, Pigweed), 60%; in assay [9] (setting [17]), 90%; in [10] (setting [17]) it was 90%. Besides, the pest or weed control at 500 g/ha in [11] (setting [17]) was 100%; in [12] (setting [17]), 50%; in [13] (setting [17]), 90%; in assay [14] (setting [17]), 80%. The pest or weed control at 250 g/ha stood at 0% in [5] (360 h, visually evaluated after 13 to 15 d, read-out: Plant response rating, Rice (0 to 100 scale where 0 is no effect and 100 is complete control)); 60% in [6] (360 h, visually evaluated after 13 to 15 d, read-out: Plant response rating, Barnyardgrass (0 to 100 scale where 0 is no effect and 100 is complete control)); 100% in assay [7] (360 h, visually evaluated after 13 to 15 d, read-out: Plant response rating, Ducksalad (0 to 100 scale where 0 is no effect and 100 is complete control)); 0% in assay [8] (360 h, visually evaluated after 13 to 15 d, read-out: Plant response rating, Sedge, Umbrella (0 to 100 scale where 0 is no effect and 100 is complete control)).
